Data published in patent US20040247571A1, “Neural cells expressing tyrosine hydroxylase” (priority 2001, published 2004).

Tested on: Human neural progenitor cells expanded in EGF/bFGF/LIF (991013FBr)
Test: Importance of the various factors for TH induction
Assay type: cell-based
Details: for effect of omitting the factor from the cocktail on induction of TH positive cells: one factor omitted from the cocktail of Example 1, 3 days
Procedure: Cultures of human neural progenitors established from human fetal forebrain expanded in N2 medium supplemented with EGF/bFGF/LIF or EGF/bFGF/CNTF as indicated were mechanically passaged and maintained in expansion medium for 5-7 days. The small spheres were then plated on glass coverslips coated with poly-L-lysine (PLL, 100 μg/ml) and laminin (50 μg/ml) at a cell density of 100.000 cells/cm^2 in N2 medium containing 1% FBS for “default differentiation” or in N2 medium supplemented with aFGF (100 ng/ml), BDNF (50 ng/ml), forskolin (25 μM), DA (10 μM), TPA (100 nM), dbcAMP (100 μM), GDNF (20 ng/ml), IGFI (100 ng/ml), IL-1α (200 pg/ml). N2 medium consists of DMEM:F12 (1:1) supplemented with N2 (insulin, transferrin, selenium, progesterone and putrescine), 0.6% glucose and 5 mM HEPES. After 3 days incubation, cells were fixed in 4% paraformaldehyde in PBS for 20 min at room temperature. The cells were washed three times with PBS, followed by overnight incubation with primary antibody (rabbit anti-TH, PelFreez 1:100 or Chemicon 1:800) diluted in PBS incubation buffer which contained 10% normal goat serum, 0.3% Triton X-100 (Sigma) and 1% BSA at 4° C. in a humidified chamber. The cells were washed with PBS, and incubated for 1 hr at room temperature in the dark with secondary antibody (anti-rabbit Cy3, (Chemicon 1:500) diluted in incubation buffer. After washing with PBS, nuclei were counterstained with DAPI or Hoechst 33342. Negative controls (omission of the primary antibody) were included in each experiment.
To quantify the percentage of TH cells, cells were counted in at least three fields from three to six independent coverslips randomly chosen using a 20× objective. The number of TH-immunoreactive cells in each field was counted. The total cell number was obtained by counting nuclei counterstained with DAPI or Hoechst 33342.
Human neural progenitor cells expanded in EGF/bFGF/LIF (991013FBr) cells were seeded as small spheres (5 days after trituration to single cell suspension) on PLL/laminin coated 12 mm coverslips at a cell density of 100.000 cells/cm^2 in N2 medium containing different combinations of the factors described in Example 1. After incubation for 3 days, cells were fixed in 4% PFA and immunostained for TH as described in Example 1.

**Q.** `NCCc1ccc(O)c(O)c1` [dopamine, reference compound] was tested. Which “effect of omitting the factor from the cocktail on induction of TH positive cells” value (from here on “effect of omitting the factor”) did it give?
**A.** did not affect induction of TH positive cells

**Q.** Which “effect of omitting the factor” value does the source give for BDNF: Brain Derived Neurotrophic Factor here?
**A.** did not affect induction of TH positive cells

**Q.** Which “effect of replacing FGF-1/aFGF in the cocktail on TH immunoreactive cells” value (same concentration (100 ng/ml), 3 days) does the source give for “FGF-2/bFGF: basic fibroblast growth factor” here?
**A.** without any effect on numbers or morphology of TH immunoreactive cells

**Q.** Which “effect of omitting the factor” value does the source give for “IGF-I: Insulins (IGF-I, IGF-II, insulin)” here?
**A.** did not affect induction of TH positive cells

B1: GDNF: Glial cell-line Derived Neurotrophic Factor (protein, UniProt P39905 78-211, looked up)
Glial cell line-derived …: SPDKQMAVLPRRERNRQAAAANPENSRGKGRRGQRGKNRGCVLTAIHLNVTDLGLGYETKEELIFRYCSGSCDAAETTYDKILKNLSRNRRLVSDKVGQACCRPIAFDDDLSFLDDNLVYHILRKHSAKRCGCI
**Q.** Which “effect of omitting the factor” value does the source give for B1 here?
**A.** did not affect induction of TH positive cells

B2: IL-1α: Interleukin (protein, UniProt P01583 113-271, looked up)
Interleukin-1 alpha: SAPFSFLSNVKYNFMRIIKYEFILNDALNQSIIRANDQYLTAAALHNLDEAVKFDMGAYKSSKDDAKITVILRISKTQLYVTAQDEDQPVLLKEMPEIPKTITGSETNLLFFWETHGTKNYFTSVAHPNLFIATKQDYWVCLAGGPPSITDFQILENQA
**Q.** For B2, which “effect of omitting the factor” value is on record?
**A.** did not affect induction of TH positive cells
